Data: PMC3075238 (Bioorganic & medicinal chemistry letters, 2011)

Target: T1, caspase-3 in HeLa cell (Homo sapiens, UniProt P42574)
T1 sequence (P42574 29-175 limits assumed): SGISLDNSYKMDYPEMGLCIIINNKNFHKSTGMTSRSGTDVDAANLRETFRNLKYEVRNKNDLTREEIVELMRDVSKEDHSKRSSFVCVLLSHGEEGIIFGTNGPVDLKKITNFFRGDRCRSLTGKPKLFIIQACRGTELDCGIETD
T1 sequence (P42574 176-277 limits assumed): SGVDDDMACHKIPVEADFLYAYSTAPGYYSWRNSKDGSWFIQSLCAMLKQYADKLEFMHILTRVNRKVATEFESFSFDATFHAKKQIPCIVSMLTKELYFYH
Test: Apo-One Homogeneous Caspase-3/7 whole cell assay in HeLa cells

Compound: O=C1C(=O)N(Cc2cn(CCF)nn2)c2ccc(S(=O)(=O)N3CCC[C@H]3COc3ccc(F)cc3F)cc21 [Compound 51]
- inhibition potency for caspase-3 in the whole cell assay (in words): very good inhibition potency
